Columns and labels:
NUGC-3 (stomach cancer) = assay: Cytotoxicity test against cancer cell lines (SRB assay), NUGC-3; type: cell-based; conditions: Homo sapiens, NUGC-3, 48 hours
Protocol: (§1) Human cancer cell lines HCT-15 (colon cancer), NUGC-3 (stomach cancer), NCI-H23 ([…]), ACHN (kidney cancer), PC-3 (prostate cancer), and MDA-MB-231 (breast cancer) were purchased and used from American Type Culture Collection (Manassas, VA).
(§2) Each of the cancer cell lines was cultured in RPMI 1640 supplemented with 10% fetal bovine serum (FBS) at 37° C. in a humidified atmosphere of 5% CO2. Growth inhibition was evaluated for human cancer cell lines using a sulforhodamine B (SRB) assay. The cells were dispensed in a 96-well plate at a density of 8000 cells/well, and the next day, the cells were treated with each of Examples 1 and 2 (0.1% DMSO as vehicle control), and a positive control group was treated with Adriamycin. The cells were cultured for 48 hours, and then each culture medium was fixed with 50% trichloroacetic acid ([…]) and stained using 0.4% sulforhodamine B in 1% acetic acid. An unbound dye was washed with 1% acetic acid, and the dye bound to a protein was extracted with 10 mM Tris base (pH 10.5) to determine the optical density. Absorbance at 540 nm was determined using a VersaMax microplate reader (Molecular Devices, LLC, Sunnyvale, CA, USA). GI50 values were calculated using GraphPad Prism 4.0 software (GraphPad Software, Inc., San Diego, CA, USA), and the results are described in Table 2 below.

[1] = tested on: MDA-MB-231 (breast cancer); assay: Cytotoxicity test against cancer cell lines (SRB assay), MDA-MB-231; type: cell-based; conditions: Homo sapiens, MDA-MB-231, 48 hours
Protocol: as §1, §2

NCI-H23 = assay: Cytotoxicity test against cancer cell lines (SRB assay), NCI-H23; type: cell-based; conditions: Homo sapiens, NCI-H23, 48 hours
Protocol: as §1, §2

ACHN (kidney cancer) = assay: Cytotoxicity test against cancer cell lines (SRB assay), ACHN; type: cell-based; conditions: Homo sapiens, 48 hours
Protocol: as §1, §2

[2] = tested on: human-derived breast cancer cell line MDA-MB-231; assay: Anticancer effect in animal test on breast cancer cell line (MDA-MB-231) transplanted in nude mice; type: in vivo, BALB/C nude mouse; conditions: for Inhibition rate (tumor size, vs Control group); tumor growth inhibition: day 23 (last day)
Protocol: Cancer cells (human-derived breast cancer cell line MDA-MB-231) that had been frozen-stored in liquid nitrogen were thawed and then cultured. The cells were cultured in a CO2 incubator (NuAire, USA) at a temperature of 37° C. and a CO2 concentration of 5%.
Lineage and Sex: Specific pathogen-free (SPF) BALB/C strain and female nude mouse (Orient Bio Co., Ltd.)
Week-old: Age at time of obtainment—5 week-old/Age at time of cancer cell transplantation—6 week-old/Age at time of drug administration—7 week-old
On the final day of cancer cell culture, all cancer cells were collected and counted, and the cell concentration was adjusted to 3×10^7 cells/ml using serum free media. 0.3 ml (9×10^6 cells/mouse) of the cell culture medium adjusted in this way per mouse was injected subcutaneously in the axillary area between the right scapular region and chest wall.
Calculation of Tumor Size Changes
After cancer cell transplantation, until the 23rd day since the average tumor size for each group reached about 14.2 mm^3, tumor sizes were measured a total 11 times in three directions using Vernier calipers for each individual, and then expressed in Equation of length×width×height/2.
On the 23rd day after the start of drug administration, all subjects were killed using CO2 gas, and the tumors were separated, weighed on chemical balance, and photographed.
Statistical analysis was performed using GraphPad Prism software from GraphPad Software. Changes in body weight and tumor volume according to a day were analyzed using a Bonferroni multiple comparison test after two-way ANOVA, and tumor weight on the final day was analyzed using a Dunnett's multiple comparison test after one-way ANOVA.

PC-3 (prostate cancer) = assay: Cytotoxicity test against cancer cell lines (SRB assay), PC-3; type: cell-based; conditions: Homo sapiens, PC-3, 48 hours
Protocol: as §1, §2

[3] = tested on: various types of cancer cell lines; assay: Cytotoxicity test (SRB assay), summary over the six cancer cell lines; type: cell-based; conditions: Homo sapiens; range over six cancer cell lines; read-out: GI50 values ranging (over the cell lines of Table 2)
Protocol: as §1, §2

HCT-15 (colon cancer) = assay: Cytotoxicity test against cancer cell lines (SRB assay), HCT-15; type: cell-based; conditions: Homo sapiens, HCT-15, 48 hours
Protocol: as §1, §2

[4] = General symptoms and autopsy findings in MDA-MB-231 cancer cell transplant nude mice; conditions: 2 mg/kg repeatedly intraperitoneally
Protocol: Preparation and Administration of Experimental Substances Samples were prepared for administration in Examples 1 and 2. Each of the two compounds prepared above was dissolved in dimethylacetamide (DMAC) to make 0.1 mg/ml of a stock, and then 10% tween80 and 20% HPβCD 80% were added stepwise to a 10% DMAC stock to be prepared at a final concentration of 0.01 mg/ml, and as a comparison group for comparison of anticancer effects, doxorubicin was dissolved in physiological saline to prepare an experimental substance at a concentration of 0.2 mg/ml. The prepared experimental substance was repeatedly administered intraperitoneally total 18 times by 0.2 ml per 20 g of the mouse, 5 times a week on a dosing schedule (days 0 to 4, 7 to 11, 14 to 19, 21 to 23).

[5] = day 2, 0.1 mg/kg intraperitoneally
[6] = day 4, 0.1 mg/kg intraperitoneally
[7] = day 7, 0.1 mg/kg intraperitoneally
[8] = day 9, 0.1 mg/kg intraperitoneally
[9] = day 11, 0.1 mg/kg intraperitoneally
[10] = day 14, 0.1 mg/kg intraperitoneally
[11] = day 16, 0.1 mg/kg intraperitoneally
[12] = day 18, 0.1 mg/kg intraperitoneally
[13] = day 21, 0.1 mg/kg intraperitoneally
[14] = day 23, 0.1 mg/kg intraperitoneally
[15] = day 2, 2 mg/kg intraperitoneally
[16] = day 4, 2 mg/kg intraperitoneally
[17] = day 7, 2 mg/kg intraperitoneally
[18] = day 9, 2 mg/kg intraperitoneally
[19] = day 11, 2 mg/kg intraperitoneally
[20] = day 14, 2 mg/kg intraperitoneally
[21] = day 16, 2 mg/kg intraperitoneally
[22] = day 18, 2 mg/kg intraperitoneally
[23] = day 21, 2 mg/kg intraperitoneally
[24] = day 23, 2 mg/kg intraperitoneally

COc1ccc2c(=O)c3c(O)c4c(c(O)c3oc2c1OC)CCc1c(OC2OC(C)C(OC)C(OC)C2OC)c2c(c(O)c1-4)C(=O)OC(C)C2 (stereo not shown) [Example 2, 8,15,16-trihydroxy-10,11-dimethoxy-3-methyl-5-((3,4,5-trimethoxy-6-methyltetrahydro-2H-pyran-2-yl)oxy)-3,4,6,7-tetrahydropyrano[4′,3′:6,7]naphtho[1,2-b]xanthene-1,14-dione]
GI50 (NUGC-3 (stomach cancer)): 3 nM
GI50 [1]: 4 nM
GI50 (NCI-H23): 4 nM
GI50 (ACHN (kidney cancer)): 5 nM
Tumor size (Δt = Vt − Vo) ([2]; day 0, 0.1 mg/kg intraperitoneally): 0 mm^3
Inhibition rate (tumor size, vs Control group) [2, 5]: 53.2%
Tumor size (Δt = Vt − Vo) [2, 5]: 5.8 mm^3
Inhibition rate (tumor size, vs Control group) [2, 6]: 59.3%
Tumor size (Δt = Vt − Vo) [2, 6]: 10.1 mm^3
Inhibition rate (tumor size, vs Control group) [2, 7]: 51.6%
Tumor size (Δt = Vt − Vo) [2, 7]: 23.6 mm^3
Inhibition rate (tumor size, vs Control group) [2, 8]: 49.3%
Tumor size (Δt = Vt − Vo) [2, 8]: 30.1 mm^3
Inhibition rate (tumor size, vs Control group) [2, 9]: 43.3%
Tumor size (Δt = Vt − Vo) [2, 9]: 53.1 mm^3
Inhibition rate (tumor size, vs Control group) [2, 10]: 50.7%
Tumor size (Δt = Vt − Vo) [2, 10]: 96.9 mm^3
Inhibition rate (tumor size, vs Control group) [2, 11]: 57.9%
Tumor size (Δt = Vt − Vo) [2, 11]: 155.5 mm^3
Inhibition rate (tumor size, vs Control group) [2, 12]: 46.1%
Tumor size (Δt = Vt − Vo) [2, 12]: 297 mm^3
Inhibition rate (tumor size, vs Control group) [2, 13]: 54.6%
Tumor size (Δt = Vt − Vo) [2, 13]: 447.7 mm^3
Inhibition rate (tumor size, vs Control group); tumor growth inhibition ([2]; 0.1 mg/kg intraperitoneally): 56.7%
Inhibition rate (tumor weight, vs Control group); reduction in tumor weight [2, 14]: 52.8%
Tumor size (Δt = Vt − Vo) [2, 14]: 593.3 mm^3
Tumor weight on final day [2, 14]: 1033.4 mg
GI50 (PC-3 (prostate cancer)): 3 nM
GI50 [3]: 3 to 5 nM
GI50 (HCT-15 (colon cancer)): 5 nM

COc1cccc2c1C(=O)c1c(O)c3c(c(O)c1C2=O)C[C@@](O)(C(=O)CO)C[C@@H]3O[C@H]1C[C@H](N)[C@H](O)[C@H](C)O1 [doxorubicin]
GI50 (NUGC-3 (stomach cancer)): 145 nM
GI50 [1]: 146 nM
General symptoms during administration and organs upon necropsy on the final day [4]: no abnormal findings
GI50 (NCI-H23): 139 nM
GI50 (ACHN (kidney cancer)): 151 nM
Tumor size (Δt = Vt − Vo) ([2]; day 0, 2 mg/kg intraperitoneally): 0 mm^3
Inhibition rate (tumor size, vs Control group) [2, 15]: 65.3%
Tumor size (Δt = Vt − Vo) [2, 15]: 4.3 mm^3
Inhibition rate (tumor size, vs Control group) [2, 16]: 64%
Tumor size (Δt = Vt − Vo) [2, 16]: 8.9 mm^3
Inhibition rate (tumor size, vs Control group) [2, 17]: 67.8%
Tumor size (Δt = Vt − Vo) [2, 17]: 15.7 mm^3
Inhibition rate (tumor size, vs Control group) [2, 18]: 67.9%
Tumor size (Δt = Vt − Vo) [2, 18]: 19.1 mm^3
Inhibition rate (tumor size, vs Control group) [2, 19]: 70.4%
Tumor size (Δt = Vt − Vo) [2, 19]: 27.7 mm^3
Inhibition rate (tumor size, vs Control group) [2, 20]: 80.5%
Tumor size (Δt = Vt − Vo) [2, 20]: 38.3 mm^3
Inhibition rate (tumor size, vs Control group) [2, 21]: 83%
Tumor size (Δt = Vt − Vo) [2, 21]: 62.7 mm^3
Inhibition rate (tumor size, vs Control group) [2, 22]: 83.3%
Tumor size (Δt = Vt − Vo) [2, 22]: 92 mm^3
Inhibition rate (tumor size, vs Control group) [2, 23]: 77.5%
Tumor size (Δt = Vt − Vo) [2, 23]: 222.1 mm^3
Inhibition rate (tumor size, vs Control group); tumor growth inhibition ([2]; 2 mg/kg intraperitoneally, listed as Comparison group, 2 mg/kg): 79%
Inhibition rate (tumor size, vs Control group); tumor growth inhibition ([2]; 2 mg/kg intraperitoneally, listed as comparison group, 2 mg/kg): 79.0%
Inhibition rate (tumor weight, vs Control group); reduction in tumor weight [2, 24]: 75.9%
Tumor size (Δt = Vt − Vo) [2, 24]: 287.9 mm^3
Tumor weight on final day [2, 24]: 527.9 mg
GI50 (PC-3 (prostate cancer)): 137 nM
GI50 (HCT-15 (colon cancer)): 153 nM

From US12679846B2, “Xanthone compound having excellent anticancer effect” (KOREA INSTITUTE OF OCEAN SCIENCE & TECHNOLOGY, priority 2021, dated 2026)
